# In ChEMBL document CHEMBL1201862, “PubChem BioAssay data set” (2004):
#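 48-hour exposure; five concentrations; linearly interpolated endpoints. GI50 = concentration required for 50% inhibition of growth.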 Calls of active or inactive are those of the source. Cut-off read from the data, not from the text of the source: active = GI50 up to about 1.1 µM and inactive = higher.
# What was measured:
# Experiment in all cases: inhibition of tumour cell growth, NCI panel, 48 h
# EKVX = test system: EKVX
# M14 = test system: M14
# OVCAR-3 = test system: OVCAR-3
# Malme-3M = test system: Malme-3M
# CCRF-CEM = test system: CCRF-CEM
# MOLT-4 = test system: MOLT-4
# UACC-62 = test system: UACC-62
# HL-60 = test system: HL-60
# T47D = test system: T47D
# IGROV-1 = test system: IGROV-1
# SF-539 = test system: SF-539
# NCI-H522 = test system: NCI-H522
# HCT-15 = test system: HCT-15
# HCC 2998 = test system: HCC 2998
# SF-295 = test system: SF-295
# SK-MEL-5 = test system: SK-MEL-5
# SK-MEL-2 = test system: SK-MEL-2
# SN12C = test system: SN12C
# NCI-H23 = test system: NCI-H23
# SR = test system: SR
SMILES,GI50 (EKVX),GI50 (M14),GI50 (OVCAR-3),GI50 (Malme-3M),GI50 (CCRF-CEM),GI50 (MOLT-4),GI50 (UACC-62),GI50 (HL-60),GI50 (T47D),GI50 (IGROV-1),GI50 (SF-539),GI50 (NCI-H522),GI50 (HCT-15),GI50 (HCC 2998),GI50 (SF-295),GI50 (SK-MEL-5),GI50 (SK-MEL-2),GI50 (SN12C),GI50 (NCI-H23),GI50 (SR)
CCC1(N)C(=O)OCc2c1cc1n(c2=O)Cc2cc3ccccc3nc2-1 (stereo unspecified),51.4 µM (inactive),7.41 µM (inactive),> 55.7 µM (inactive),44.3 µM (inactive),0.859 µM (active),0.871 µM (active),2.75 µM (inactive),1.74 µM (inactive),2.35 µM (inactive),6.56 µM (inactive),4.04 µM (inactive),9.51 µM (inactive),32.7 µM,38.4 µM (inactive),5.31 µM (inactive),5.21 µM (inactive),> 85.7 µM (inactive),3.99 µM (inactive),4.56 µM (inactive),–
CC1OC=CC(=O)C1O (stereo unspecified),> 100 µM (inactive),> 100 µM (inactive),> 100 µM (inactive),> 100 µM (inactive),69.7 µM (inactive),> 100 µM (inactive),> 100 µM (inactive),> 100 µM (inactive),–,> 100 µM (inactive),> 100 µM (inactive),50.4 µM (inactive),> 100 µM,> 100 µM (inactive),> 100 µM (inactive),> 100 µM (inactive),> 100 µM (inactive),> 100 µM (inactive),> 100 µM (inactive),> 100 µM (inactive)
COC(=O)/C(=C\C(=O)c1ccc(Br)cc1)NN=C(c1ccccc1)c1ccccc1,> 10 µM (inactive),> 10 µM (inactive),–,> 10 µM (inactive),> 10 µM (inactive),> 10 µM (inactive),> 10 µM (inactive),> 10 µM (inactive),> 10 µM (inactive),> 10 µM (inactive),–,–,> 10 µM,> 10 µM (inactive),> 10 µM (inactive),> 10 µM (inactive),–,> 10 µM (inactive),> 10 µM (inactive),> 10 µM (inactive)
CN(C)CCCN1c2ccc([N+](=O)[O-])cc2CCc2cc([N+](=O)[O-])ccc21,15.2 µM (inactive),14.5 µM (inactive),16 µM (inactive),17.8 µM (inactive),11.4 µM (inactive),10.1 µM (inactive),14.7 µM (inactive),14.1 µM (inactive),16.1 µM (inactive),14.6 µM (inactive),18.3 µM (inactive),17.4 µM (inactive),17.4 µM,11.9 µM (inactive),15.6 µM (inactive),10.6 µM (inactive),17.5 µM (inactive),15 µM (inactive),18.6 µM (inactive),–
C/C(=N\NS(=O)(=O)c1ccc(C)cc1)P(=O)(O)O,> 100 µM (inactive),> 100 µM (inactive),> 100 µM (inactive),> 100 µM (inactive),–,–,> 100 µM (inactive),–,> 100 µM (inactive),> 100 µM (inactive),> 100 µM (inactive),> 100 µM (inactive),> 100 µM,–,> 100 µM (inactive),> 100 µM (inactive),> 100 µM (inactive),> 100 µM (inactive),> 100 µM (inactive),–
CC1(c2cccc(Cl)c2)CC(c2cccc(Cl)c2)=C(C#N)C(=C(C#N)C#N)N1 (stereo unspecified),22.1 µM (inactive),17.1 µM (inactive),10.3 µM (inactive),17.1 µM (inactive),2.92 µM (inactive),12.5 µM (inactive),17 µM (inactive),18.4 µM (inactive),13.2 µM (inactive),16.7 µM (inactive),19.1 µM (inactive),–,16 µM,15.8 µM (inactive),16 µM (inactive),14.6 µM (inactive),21.7 µM (inactive),19.4 µM (inactive),17.4 µM (inactive),14.3 µM (inactive)
CC(C)C(N)C(=O)NC(CCC(=O)NCCCCC(N)C(=O)NCCCNc1ccc([N+](=O)[O-])c2[nH]c3ccccc3c(=O)c12)C(N)=O (stereo unspecified),> 100 µM (inactive),75.3 µM (inactive),> 100 µM (inactive),–,34.5 µM (inactive),–,25.2 µM (inactive),–,> 100 µM (inactive),–,–,–,41.2 µM,40.2 µM (inactive),55.7 µM (inactive),> 100 µM (inactive),91.6 µM (inactive),–,88.7 µM (inactive),–
C[N+](C)(CCNC(=O)c1cccc2cc3ccccc3nc12)Cc1ccc([N+](=O)[O-])s1,> 25 µM (inactive),> 25 µM (inactive),> 25 µM (inactive),> 25 µM (inactive),> 25 µM (inactive),> 25 µM (inactive),> 25 µM (inactive),10.9 µM (inactive),> 25 µM (inactive),> 25 µM (inactive),–,> 25 µM (inactive),> 25 µM,–,> 25 µM (inactive),> 25 µM (inactive),> 25 µM (inactive),> 25 µM (inactive),> 25 µM (inactive),–
